Measurements reported in ChEMBL document CHEMBL1275440, “In vitro activity of telavancin against resistant gram-positive bacteria” (2008).
Converted amounts (≈) assume the structure as drawn. The source made the active and inactive calls. No cut-off for these calls is given here.

What was measured:
[1] = test system: Staphylococcus auricularis; assay: Antibacterial activity against methicillin resistant coagulase-negative Staphylococcus auricularis clinical isolate by broth microdilution method; assay type: functional
[2] = test system: Staphylococcus haemolyticus; assay: Antibacterial activity against methicillin resistant coagulase-negative Staphylococcus haemolyticus clinical isolate by broth microdilution method; assay type: functional
[3] = test system: Staphylococcus aureus; assay: Antibacterial activity against methicillin resistant Staphylococcus aureus clinical isolate assessed as susceptibility level by broth microdilution method; assay type: functional
[4] = test system: Staphylococcus saprophyticus; assay: Antibacterial activity against methicillin resistant coagulase-negative Staphylococcus saprophyticus clinical isolate by broth microdilution method; assay type: functional
[5] = test system: Enterococcus faecium; assay: Antibacterial activity against vancomycin resistant Enterococcus faecium VanA clinical isolate by broth microdilution method; assay type: functional
[6] = test system: Streptococcus pyogenes; assay: Antibacterial activity against Streptococcus pyogenes group A clinical isolate assessed as susceptibility level by broth microdilution method; assay type: functional
[7] = test system: Streptococcus intermedius; assay: Antibacterial activity against Streptococcus intermedius clinical isolate by broth microdilution method; assay type: functional
[8] = (§1) Antibacterial activity against methicillin resistant coagulase-negative Staphylococcus hominis subsp. novobiosepticus clinical isolate assessed as susceptibility level by broth microdilution method; assay type: functional
[9] = test system: Streptococcus mitis; assay: Antibacterial activity against Streptococcus mitis clinical isolate by broth microdilution method; assay type: functional
[10] = test system: Enterococcus faecalis; assay: Antibacterial activity against vancomycin resistant Enterococcus faecalis VanB clinical isolate assessed as susceptibility level by broth microdilution method; assay type: functional
[11] = test system: Streptococcus agalactiae; assay: Antibacterial activity against Streptococcus agalactiae group B clinical isolate assessed as susceptibility level by broth microdilution method; assay type: functional
[12] = test system: Streptococcus pneumoniae; assay: Antibacterial activity against multidrug-resistant Streptococcus pneumoniae clinical isolate by broth microdilution method; assay type: functional
[13] = test system: Streptococcus pyogenes; assay: Antibacterial activity against Streptococcus pyogenes group A clinical isolate by broth microdilution method; assay type: functional
[14] = test system: Streptococcus viridans; assay: Antibacterial activity against Streptococcus viridans clinical isolate by broth microdilution method; assay type: functional
[15] = test system: Streptococcus intermedius; assay: Antibacterial activity against Streptococcus intermedius clinical isolate assessed as susceptibility level by broth microdilution method; assay type: functional
[16] = test system: Enterococcus faecalis; assay: Antibacterial activity against vancomycin resistant Enterococcus faecalis VanA clinical isolate assessed as susceptibility level by broth microdilution method; assay type: functional
[17] = test system: Enterococcus faecalis; assay: Antibacterial activity against vancomycin resistant Enterococcus faecalis VanA clinical isolate by broth microdilution method; assay type: functional
[18] = (§2) Antibacterial activity against methicillin resistant coagulase-negative Staphylococcus hominis subsp. novobiosepticus clinical isolate by broth microdilution method; assay type: functional
[19] = test system: Staphylococcus haemolyticus; assay: Antibacterial activity against methicillin resistant coagulase-negative Staphylococcus haemolyticus clinical isolate assessed as susceptibility level by broth microdilution method; assay type: functional
[20] = test system: Streptococcus agalactiae; assay: Antibacterial activity against Streptococcus agalactiae group B clinical isolate by broth microdilution method; assay type: functional
[21] = test system: Staphylococcus capitis; assay: Antibacterial activity against methicillin resistant coagulase-negative Staphylococcus capitis clinical isolate assessed as susceptibility level by broth microdilution method; assay type: functional
[22] = test system: Enterococcus faecalis
[23] = test system: Staphylococcus aureus; assay: Antibacterial activity against methicillin resistant Staphylococcus aureus clinical isolate by broth microdilution method; assay type: functional
[24] = test system: Streptococcus constellatus; assay: Antibacterial activity against Streptococcus constellatus clinical isolate by broth microdilution method; assay type: functional
[25] = test system: Streptococcus oralis; assay: Antibacterial activity against Streptococcus oralis clinical isolate assessed as susceptibility level by broth microdilution method; assay type: functional
[26] = test system: Staphylococcus capitis; assay: Antibacterial activity against methicillin resistant coagulase-negative Staphylococcus capitis clinical isolate by broth microdilution method; assay type: functional
[27] = test system: Streptococcus mitis; assay: Antibacterial activity against Streptococcus mitis clinical isolate assessed as susceptibility level by broth microdilution method; assay type: functional
[28] = test system: Streptococcus viridans; assay: Antibacterial activity against Streptococcus viridans clinical isolate assessed as susceptibility level by broth microdilution method; assay type: functional
[29] = test system: Staphylococcus saprophyticus; assay: Antibacterial activity against methicillin resistant coagulase-negative Staphylococcus saprophyticus clinical isolate assessed as susceptibility level by broth microdilution method; assay type: functional
[30] = test system: Streptococcus oralis; assay: Antibacterial activity against Streptococcus oralis clinical isolate by broth microdilution method; assay type: functional
[31] = test system: Staphylococcus epidermidis; assay: Antibacterial activity against methicillin resistant Staphylococcus epidermidis clinical isolate assessed as susceptibility level by broth microdilution method; assay type: functional
[32] = test system: Enterococcus faecalis; assay: Antibacterial activity against vancomycin resistant Enterococcus faecalis VanB clinical isolate by broth microdilution method; assay type: functional
[33] = test system: Streptococcus pneumoniae; assay: Antibacterial activity against penicillin intermediate Streptococcus pneumoniae clinical isolate by broth microdilution method; assay type: functional
[34] = test system: Staphylococcus auricularis; assay: Antibacterial activity against methicillin resistant coagulase-negative Staphylococcus auricularis clinical isolate assessed as susceptibility level by broth microdilution method; assay type: functional
[35] = test system: Staphylococcus epidermidis; assay: Antibacterial activity against methicillin resistant Staphylococcus epidermidis clinical isolate by broth microdilution method; assay type: functional
[36] = test system: Enterococcus faecium; assay: Antibacterial activity against vancomycin resistant Enterococcus faecium VanB clinical isolate assessed as susceptibility level by broth microdilution method; assay type: functional
[37] = test system: Streptococcus pneumoniae; assay: Antibacterial activity against penicillin resistant Streptococcus pneumoniae clinical isolate by broth microdilution method; assay type: functional
[38] = test system: Enterococcus faecium; assay: Antibacterial activity against vancomycin resistant Enterococcus faecium VanB clinical isolate by broth microdilution method; assay type: functional
[39] = test system: Enterococcus faecium; assay: Antibacterial activity against vancomycin resistant Enterococcus faecium VanA clinical isolate assessed as susceptibility level by broth microdilution method; assay type: functional
[40] = test system: Streptococcus constellatus; assay: Antibacterial activity against Streptococcus constellatus clinical isolate assessed as susceptibility level by broth microdilution method; assay type: functional
[41] = test system: Staphylococcus hominis subsp. novobiosepticus; assay: as §1; assay type: functional
[42] = test system: Staphylococcus hominis subsp. novobiosepticus; assay: as §2; assay type: functional

CCCCCCCCCC(=O)N[C@@H](Cc1c[nH]c2ccccc12)C(=O)N[C@H](CC(N)=O)C(=O)N[C@@H](CC(=O)O)C(=O)N[C@@H]1C(=O)NCC(=O)N[C@@H](CCCN)C(=O)N[C@@H](CC(=O)O)C(=O)N[C@H](C)C(=O)N[C@@H](CC(=O)O)C(=O)NCC(=O)N[C@H](CO)C(=O)N[C@@H]([C@H](C)CC(=O)O)C(=O)N[C@@H](CC(=O)c2ccccc2N)C(=O)O[C@@H]1C
MIC50 [1]: 0.25 µg/mL (≈ 0.154 µM)
MIC90 [1]: 1 µg/mL (≈ 0.617 µM)
MIC50 [2]: 0.25 µg/mL (≈ 0.154 µM)
MIC90 [2]: 1 µg/mL (≈ 0.617 µM)
Activity [3]: 98%
MIC50 [4]: 0.25 µg/mL (≈ 0.154 µM)
MIC90 [4]: 1 µg/mL (≈ 0.617 µM)
MIC50 [5]: 2 µg/mL (≈ 1.23 µM)
MIC90 [5]: 4 µg/mL (≈ 2.47 µM)
Activity [6]: 100%
MIC [7]: 0.25 µg/mL (≈ 0.154 µM)
MIC50 [7]: inactive
MIC90 [7]: inactive
Activity [8]: 100%
MIC [9]: 0.25 µg/mL (≈ 0.154 µM)
MIC50 [9]: inactive
MIC90 [9]: inactive
Activity [10]: 100%
Activity [11]: 100%
MIC50 [12]: 0.12 µg/mL (≈ 0.074 µM)
MIC90 [12]: 0.12 µg/mL (≈ 0.074 µM)
MIC [13]: ≤ 0.03 µg/mL
MIC50 [13]: ≤ 0.03 µg/mL
MIC90 [13]: 0.25 µg/mL (≈ 0.154 µM)
MIC [14]: 0.25 µg/mL (≈ 0.154 µM)
MIC50 [14]: inactive
MIC90 [14]: inactive
Activity [15]: 100%
Percent of isolates susceptible [16]: 100%
MIC50 [17]: 1 µg/mL (≈ 0.617 µM)
MIC90 [17]: 2 µg/mL (≈ 1.23 µM)
MIC50 [18]: 0.25 µg/mL (≈ 0.154 µM)
MIC90 [18]: 1 µg/mL (≈ 0.617 µM)
Activity [19]: 100%
MIC50 [20]: 0.25 µg/mL (≈ 0.154 µM)
MIC90 [20]: 0.25 µg/mL (≈ 0.154 µM)
Activity [21]: 100%
MIC50 [22]: inactive
MIC90 [22]: inactive
Activity [23]: 98%
MIC50 ([23]; Staphylococcus aureus): 0.25 µg/mL (≈ 0.154 µM)
MIC90 ([23]; Staphylococcus aureus): 0.5 µg/mL (≈ 0.309 µM)
MIC [24]: 0.25 µg/mL (≈ 0.154 µM)
MIC50 [24]: inactive
MIC90 [24]: inactive
Activity [25]: 100%
MIC50 [26]: 0.25 µg/mL (≈ 0.154 µM)
MIC90 [26]: 1 µg/mL (≈ 0.617 µM)
Activity [27]: 100%
Activity [28]: 100%
Activity [29]: 100%
MIC [30]: 0.25 µg/mL (≈ 0.154 µM)
MIC50 [30]: inactive
MIC90 [30]: inactive
Activity [31]: 100%
MIC [32]: 0.5 µg/mL (≈ 0.309 µM)
MIC50 [33]: 0.12 µg/mL (≈ 0.074 µM)
MIC90 [33]: 0.5 µg/mL (≈ 0.309 µM)
Activity [34]: 100%
MIC50 [35]: 0.5 µg/mL (≈ 0.309 µM)
MIC90 [35]: 1 µg/mL (≈ 0.617 µM)
Activity [36]: 93%
MIC50 [37]: 0.12 µg/mL (≈ 0.074 µM)
MIC90 [37]: 0.12 µg/mL (≈ 0.074 µM)
MIC50 [38]: 2 µg/mL (≈ 1.23 µM)
MIC90 [38]: 4 µg/mL (≈ 2.47 µM)
Activity [39]: 98%
Activity [40]: 100%

GENTAMICIN
MIC50 [1]: 16 µg/mL
MIC90 [1]: > 16 µg/mL
MIC50 [2]: 16 µg/mL
MIC90 [2]: > 16 µg/mL
Activity [3]: 97%
MIC50 [4]: 16 µg/mL
MIC90 [4]: > 16 µg/mL
Activity [41]: 29%
MIC50 [42]: 16 µg/mL
MIC90 [42]: > 16 µg/mL
Activity [19]: 29%
Activity [21]: 29%
Activity [23]: 97%
MIC50 [23]: 0.5 µg/mL
MIC90 [23]: 2 µg/mL
MIC50 [26]: 16 µg/mL
MIC90 [26]: > 16 µg/mL
Activity [29]: 29%
Activity [31]: 35%
Activity [34]: 29%
MIC50 [35]: 16 µg/mL
MIC90 [35]: > 16 µg/mL
